In data set [1] the test system is broiler chickens. The data set can be described thus: Feed complementation for broiler chickens, whole productive cycle, 1 to 42 days (Example 6). Type of data set: in vivo. The note with it: for Alimentary conversion / Average weight gain (GPM)/chicken / Feed consumption / GPD / % death: 0 to 42 days; for % death: broiler chickens; for Average weight (PM)/chicken, PM2: final weight, 42 days. From the text: For this study there were used 2.352 chickens, males of the Cobb lineage 500, received with one day of life. The chickens were housed in 42 boxes, with 56 chickens being in each experimental unit. These chickens were submitted to different treatments, distributed randomly in 06 blocks of 07 experimental units, with two daily observations being made, in order to evaluate the general conditions of the batch, such as temperature, illumination, water, feed and conditions of the bed of each one of the boxes.
The treatments of each chicken batch were based on a pattern feed, with the following composition:
From this basal feed, the different treatments were developed as follows:
The results obtained with these different treatments are shown in the Table—Average weight, average weight gain, average feed consumption, alimentary conversion and mortality during the experimental period from 0 to 42 days: […]

In data set [2] the test system is broiler chickens. The data set can be described thus: Feed complementation for broiler chickens, initial growing cycle, 1 to 21 days (Example 5). The format is in vivo. The note with it: 0 to 21 days. The source says: For this study it was used 336 chickens, males of Cobb lineage 500, received with one day of life. The chickens were housed in 28 cages, with 12 chickens being in each experimental unit. These chickens were submitted to 7 different treatments, each with 4 repetitions, distributed randomly in 7 blocks of 4 experimental units, with two daily observations being made, in order to evaluate the general conditions of the batch, such as temperature, illumination, water, feed and conditions of the bed of each one of the boxes.
The treatments of each batch of chickens were based on a pattern feed. Using this basal feed, the different treatments were developed as follows:
The quantity of formulation applied in the feeds presented as reference the used quantity of butyrates/feed ton, that is, within the interval from 200 g/feed ton to 1.000 g/feed ton.
The results obtained with these different treatments are related in the Table—Average weight, average weight gain, average feed consumption, alimentary conversion and mortality during the experimental period from 0 to 21 days: […]

The values below come from US20170013861A1, “BIOLOGICAL FORMULATION FOR COMPLEMENTING AN ANIMAL FEED, PROCESS FOR OBTAINING A BIOLOGICAL FORMULATION FOR AN ANIMAL FEED AND AN ANIMAL FEED” (PHB INDUSRIAL S.A., priority 2014, published 2017).

`CCCC(=O)[O-].[Na+]` [Treatment T2, sodium butyrate]: in data set [1], the Alimentary conversion turned out to be 1.789, the “Average weight gain (GPM)/chicken” value turned out to be 2.709 abc kg, the Feed consumption stood at 5.058 kg and the GPD worked out at 65.5 a g/day. Further, in data set [1], the “% death” value stood at 6.47% and the “Average weight (PM)/chicken, PM2” value worked out at 2.753 abc kg. In data set [2], this compound returned an Alimentary conversion of 1.371. Moreover, the Accumulated mortality % in data set [2] (broiler chickens) worked out at 10.41%.

On to “calcium butyrate [T3 - Ca, butyrate 45%]”, for which, in data set [1], the Alimentary conversion came out at 1.874, the “Average weight gain (GPM)/chicken” value stood at 2.655 bc kg, the Feed consumption came out at 5.116 kg and the GPD was 64.3 b g/day. In addition, in data set [1], the “% death” value is on record as 4.91% and the “Average weight (PM)/chicken, PM2” value came out at 2.699 c kg.
